These results are taken from ChEMBL document CHEMBL5385880, “Design, synthesis and evaluation of the novel chalcone derivatives with 2,2-dimethylbenzopyran as HIF-1 inhibitors that possess anti-angiogenic potential” (Eur J Med Chem, 2023).

As usually defined, the IC50 is the concentration needed to halve the response being measured. Broadly, the Tmax is the time at which the peak concentration occurs. What is called IC20 is the concentration at which the effect reaches the 20% level. Broadly, the Cmax is the peak of the concentration-time curve. Usually half-life stands for the time in which the quantity being followed falls by half. Usually AUC(0-inf) stands for total exposure, with the tail of the curve extrapolated. Broadly, the fraction unbound is free concentration divided by total concentration. For orientation: clearance means the volume of plasma or blood freed of the substance per unit of time. Lower therefore signals a low capacity for elimination. Usually AUC(0-t) stands for the area under the concentration-time curve up to a stated or last time point. A high value points to high exposure.

The subject of one series is T47D. Put plainly: Cytotoxicity activity against human T47D cells. The format is functional, cell-based.
A short description of series [1]: Subchronic toxicity in Kunming mouse assessed as side effects at 50 mg/kg administered via oral gavage measured upto 10 days. Format: organism-based. Particulars: in vivo, 240 h, time < 10 day.
Series [2] in a line: Metabolic stability in Sprague-Dawley rat liver microsomes at 100 ug/ml measured after 120 mins in presence of NADPH generating system by HPLC analysis. Format: ADME, Microsome. The settings on record: at 100 µg/mL, read-out: Stability.
Series [3] can be described thus: Subchronic toxicity in Kunming mouse assessed as effect on body weight at 50 mg/kg administered via oral gavage measured upto 10 days. Format: organism-based. The settings on record: in vivo, 240 h, time < 10 day.
The nature of series [4]: Tmax in Sprague-Dawley rat at 20 mg/kg, iv administered as single dose measured upto 6 hrs by HPLC analysis. The format is ADME, organism-based. Particulars: in vivo.
A short description of series [5]: Cytotoxicity against human HUVEC cells assessed as reduction in cell growth incubated for 48 hrs by CCK-8 method. Format: toxicity, cell-based.
Series [6] relates to Mus musculus. Put plainly: Anti-angiogenesis activity in VEGF stimulated C57/bl6 mouse implanted with matrigel assessed as appearance of hemoglobin content in matrigel plug at 1.25 to 20 uM measured after 10 days. The settings on record: dose 1.25-20 µM, time 10.0 day. Format: functional, organism-based.
The nature of series [7]: Cmax in Sprague-Dawley rat at 20 mg/kg, iv administered as single dose measured upto 6 hrs by HPLC analysis. Format: ADME, organism-based. Also noted: dose 20 mg/kg, time < 6 hrs, route iv. Particulars: in vivo.
The subject of series [8] is A549. Put plainly: Cytotoxicity against human A549 cells assessed as reduction in cell growth at 4 uM incubated for 48 hrs by CCK-8 method. Format: functional, cell-based. In general terms: Tetrazolium dyes change colour on reduction, which living cells bring about.
Series [9] in a line: Metabolic stability in Sprague-Dawley rat liver microsomes assessed as half life at 100 ug/ml measured upto 120 mins in presence of NADPH generating system by HPLC analysis. The format is ADME, Microsome. Particulars: dose 100 µg/ml.
Series [10] relates to HUVEC. Put plainly: Antiangiogenic activity in HUVEC assessed as inhibition of VEGF-induced tube formation measured after 12 hrs by matrigel based analysis. The format is functional, cell-based. The settings on record: Homo sapiens, dose 0-8 µM.
In series [11] the test system is A549. Put plainly: Antimigratory activity in human A549 cells assessed as decrease in cell migration at 4 uM incubated for 24 hrs by wound healing assay. The format is functional, cell-based.
Series [12] in a line: Apparent volume of distribution in Sprague-Dawley rat at 20 mg/kg, iv administered as single dose measured upto 6 hrs by HPLC analysis. Format: ADME, organism-based. The settings on record: in vivo, read-out: Vz.
Series [13] in a line: Subchronic toxicity in Kunming mouse assessed as adverse events at 50 mg/kg administered via oral gavage measured upto 10 days. The format is organism-based. Particulars: in vivo, 240 h, time < 10 day.
The species entered for series [14] is Mus musculus. Put plainly: Anti-angiogenesis activity in VEGF stimulated C57/bl6 mouse assessed as decrease in number of blood vessels at 1.25 to 20 uM measured after 10 days. The format is functional, organism-based. The settings on record: dose 1.25-20 µM, time 10.0 day.
Series [15] can be described thus: Metabolic stability in Sprague-Dawley rat liver microsomes at 100 ug/ml measured after 30 mins in presence of NADPH generating system by HPLC analysis. The format is ADME, Microsome. The settings on record: at 100 µg/mL, read-out: Stability. (Liver microsomes are vesicles of endoplasmic reticulum, rich in cytochrome P450 enzymes.)
For series [16], the species on record is Mus musculus. Put plainly: Anti-angiogenesis activity in VEGF stimulated C57/bl6 mouse assessed as formation of new blood vessels at 20 uM measured after 10 days. Format: functional, organism-based. The settings on record: time 10.0 day.
The subject of series [17] is A549. Put plainly: Inhibition of VEGF induced cell invasion in human A549 cells measured after 24 hrs by calcein-AM staining transwell invasion assay. The format is functional, cell-based. Particulars: dose 0-4 µM.
The nature of series [18]: AUC (0 to infinity) in Sprague-Dawley rat at 20 mg/kg, iv administered as single dose measured upto 6 hrs by HPLC analysis. Format: ADME, organism-based. Details: time < 6 hrs, dose 20 mg/kg, route iv. Particulars: in vivo.
In series [19] the test system is A549. Put plainly: Inhibition of cell invasion in human A549 cells at 0 to 4 uM measured after 24 hrs by calcein-AM staining transwell invasion assay. Format: functional, cell-based. The settings on record: dose 0-4 µM.
Series [20] can be described thus: Plasma protein binding in Sprague-Dawley rat assessed as free fraction by equilibrium dialysis analysis. Format: ADME, cell-free. (In equilibrium dialysis free small molecules cross a membrane that holds back macromolecules.)
Series [21] can be described thus: Half life in Sprague-Dawley rat at 20 mg/kg, iv administered as single dose measured upto 6 hrs by HPLC analysis. The settings on record: in vivo. Format: ADME, organism-based.
A short description of series [22]: Subchronic toxicity in Kunming mouse assessed as effect on apparent behavior problem at 50 mg/kg administered via oral gavage measured upto 10 days. Particulars: in vivo, 240 h, time < 10 day. Format: organism-based.
A short description of series [23]: Metabolic stability in Sprague-Dawley rat liver microsomes at 100 ug/ml measured after 60 mins in presence of NADPH generating system by HPLC analysis. The settings on record: at 100 µg/mL, read-out: Stability. The format is ADME, Microsome.
Series [24] in a line: Clearance in Sprague-Dawley rat at 20 mg/kg, iv administered as single dose measured upto 6 hrs by HPLC analysis. The format is ADME, organism-based. Particulars: in vivo.
Series [25] is described as follows: Metabolic stability in Sprague-Dawley rat liver microsomes at 100 ug/ml measured after 10 mins in presence of NADPH generating system by HPLC analysis. Format: ADME, Microsome. The settings on record: at 100 µg/mL, read-out: Stability.
The nature of series [26]: Subchronic toxicity in Kunming mouse assessed as drug tolerance at 50 mg/kg administered via oral gavage measured upto 10 days. Format: organism-based. Particulars: in vivo, 240 h, time < 10 day.
Series [27] in a line: AUC (0 to t) in Sprague-Dawley rat at 20 mg/kg, iv administered as single dose measured upto 6 hrs by HPLC analysis. Format: ADME, organism-based. Also noted: dose 20 mg/kg, time < 6 hrs, route iv. Particulars: in vivo.
The test system of series [28] is A549. Put plainly: Cytotoxicity against human A549 cells assessed as reduction in cell growth incubated for 48 hrs by CCK-8 method. Format: functional, cell-based.
The subject of series [29] is HUVEC. Put plainly: Cytotoxicity against human HUVEC cells assessed as reduction in cell growth at 10 uM incubated for 48 hrs by CCK-8 method. The format is toxicity, cell-based.

Structures are written as SMILES. The source made the active and inactive calls. The calls are words filed in the database; no cut-off is given here.

Turning to `COc1ccc([C@@H](O)[C@@H](C)Oc2ccc([C@H]3O[C@H](c4ccc(O[C@H](C)[C@H](O)c5ccc(OC)c(OC)c5)c(OC)c4)[C@H](C)[C@H]3C)cc2OC)cc1OC`, the 50% inhibitory concentration (IC50) in the series on T47D was 0.003 µM.

In the case of `COc1ccc(/C=C/C(=O)c2ccc3c(c2O)C=CC(C)(C)O3)cc1OCCCN1CCCC1`, the Activity result in series [1] is “Non-Toxic”; in series [3], “Non-Toxic”; with HUVEC [10] it was “Dose-Dependent Effect”; in [13] it was “Non-Toxic”; in [22], “Non-Toxic”; in [26], “Non-Toxic”. In addition, the Activity entry with HUVEC [29] is reported as “Non-Toxic”. For the same molecule, in series [2], the remaining at 2 h, 100 ug/ml was 51%. For the same molecule, in [4], the Tmax is 1.98 min. Also, in [5], the IC50 at 48 h came out at 19.6 µM. In addition, the IC20 at 48 h in [5] (time 48 hrs) came out at 10.6 µM. The outcome with Mus musculus [6], in the series with A549 [11] and in the series filed under Mus musculus [14] was Active. In addition, the peak level in series [7] (Cmax) was 7.06 µM. Further, the outcome in the series on A549 [8] and in the series listed under Mus musculus [16] was inactive. In addition, the half-life at 100 ug/ml in [9] turned out to be 2.3 h. Further, in series [12], the Vd worked out at 5.59 L. For the same molecule, the remaining at 0.5 h, 100 ug/ml in series [15] came to 77%. Also, in the series with A549 [17], the inhibition entry was “Dose-Dependent Effect”. In series [18], this molecule yielded an AUC(0-inf) of 8.88 µM·h. In addition, the inhibition result with A549 [19] is “Active”. Moreover, in series [20], the fraction unbound was determined as 0.88. The half-life in series [21] is 1.64 h. Moreover, the remaining at 1 h, 100 ug/ml in [23] turned out to be 60%. The same molecule had a clearance in [24] of 39.5 mL/min. The remaining at 10 min, 100 ug/ml in series [25] came to 90%. For the same molecule, the AUC(0-t) at 6 h in [27] came out at 5.27 µM·h. The IC50 in the series with A549 [28] (A549, 48 h) stood at 8.88 µM. Further, the concentration for an effect of 20% (IC20) in the series on A549 [28] (A549, time 48 hrs) is 4.19 µM.
